In US11000033B2, “Ketone or oxime compound, and herbicide” (NISSAN CHEMICAL CORPORATION, priority 2014, dated 2021):

How the values were obtained:
Format in all cases: in vivo
Scirpus juncoides = test: Test Example 1: herbicidal activity, application before weed generation in submerged conditions (symbol B); settings: application herbicide amount 320 g/ha
Method in brief: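 Steps: alluvial soil flooded to 4 cm; weed seeds sown together; rice seedlings (2.5 leaf) transplanted; diluted emulsion applied to water surface the same day as sowing; plants grown at 25–30 °C in greenhouse; herbicidal effect rated on a 0–5 scale at 3 weeks.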

Digitaria ciliaris = test: Test Example 5: herbicidal effect by foliage application, plastic box (symbol F); settings: 320 g/ha, 3 weeks after application
Method in brief: (§1)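 Herbicide, formulated as an emulsion and diluted in water, is sprayed onto the aerial parts of 14-day seedlings. These were grown at 25° C. to 30° C. in sterilized diluvial soil; effects are graded after 3 weeks.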

rice plant = test: Test Example 5: effect on crop by foliage application, plastic box (symbol b); settings: 320 g/ha, 3 weeks after application
Method in brief: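 Box culture: sterile diluvial soil, seeds spot-sown, ~1.5 cm cover, raised under glass at 25–30° C.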

Veronica persica = test: Test Example 4: herbicidal effect by soil treatment (symbol R); settings: for Herbicidal effect grade, R: Veronica persica: application herbicide amount 320 g/ha; for R: Veronica persica, herbicidal effect grade: 320 g/ha
Method in brief: (§2)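 Seeds were sown in sterilized diluvial soil, covered with about 1.5 cm of soil, and the soil surface was sprayed with a water-diluted emulsion of the compound at a predetermined rate. Plants grew in a greenhouse at 25° C. to 30° C.; effects were scored visually 3 weeks after application.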

soybean = test: Test Example 4: effect on crop by soil treatment (symbol d); settings: for Effect on crop grade, d: soybean: application herbicide amount 320 g/ha; for d: soybean, effect grade on crop: 320 g/ha
Method in brief: (§3)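 Plants grew in a 25° C. to 30° C. greenhouse after spot-sowing of seeds, including beet, rapeseed, wheat and rice, into sterilized diluvial soil under roughly 1.5 cm of cover soil.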

Abutilon theophrasti = test: Test Example 4: herbicidal effect by soil treatment (symbol M); settings: for Herbicidal effect grade, M: Abutilon theophrasti: application herbicide amount 320 g/ha; for M: Abutilon theophrasti, herbicidal effect grade: 320 g/ha
Method in brief: as §2

Apera spica-venti = test: Test Example 4: herbicidal effect by soil treatment (symbol L); settings: for Herbicidal effect grade, L: Apera spica-venti: application herbicide amount 320 g/ha; for L: Apera spica-venti, herbicidal effect grade: 320 g/ha
Method in brief: as §2

Stellaria media = test: Test Example 4: herbicidal effect by soil treatment (symbol P); settings: for Herbicidal effect grade, P: Stellaria media: application herbicide amount 320 g/ha; for P: Stellaria media, herbicidal effect grade: 320 g/ha
Method in brief: as §2

rice = test: Test Example 4: effect on crop by soil treatment (symbol b); settings: for Effect on crop grade, b: directly sowed rice plant: application herbicide amount 320 g/ha; for b: directly sowed rice plant, effect grade on crop: 320 g/ha
Method in brief: as §3

Avena fatua = test: Test Example 4: herbicidal effect by soil treatment (symbol I); settings: for Herbicidal effect grade, I: Avena fatua: application herbicide amount 320 g/ha; for I: Avena fatua, herbicidal effect grade: 320 g/ha
Method in brief: as §2

[1] = tested on: Echinochloa crus-galli var. crus-galli; test: Test Example 5: herbicidal effect by foliage application, plastic box (symbol H); settings: 320 g/ha, 3 weeks after application
Method in brief: as §1

Chenopodium album = test: Test Example 5: herbicidal effect by foliage application, plastic box (symbol O); settings: 320 g/ha, 3 weeks after application
Method in brief: as §1

Alopecurus myosuroides [2] = test: Test Example 4: herbicidal effect by soil treatment (symbol J); settings: for Herbicidal effect grade, J: Alopecurus myosuroides: application herbicide amount 320 g/ha; for J: Alopecurus myosuroides, herbicidal effect grade: 320 g/ha
Method in brief: as §2

Setaria viridis = test: Test Example 4: herbicidal effect by soil treatment (symbol G); settings: for Herbicidal effect grade, G: Setaria viridis: application herbicide amount 320 g/ha; for G: Setaria viridis, herbicidal effect grade: 320 g/ha
Method in brief: as §2

Alopecurus myosuroides [3] = test: Test Example 5: herbicidal effect by foliage application, plastic box (symbol J); settings: 320 g/ha, 3 weeks after application
Method in brief: as §1

wheat = test: Test Example 4: effect on crop by soil treatment (symbol e); settings: for Effect on crop grade, e: wheat: application herbicide amount 320 g/ha; for e: wheat, effect grade on crop: 320 g/ha
Method in brief: as §3

Monochoria vaginalis = test: Test Example 2: herbicidal activity, application during weed generation in submerged conditions (symbol C); settings: Table 23; application herbicide amount 320 g/ha; grade 0-5 by criteria of Test Example 1
Method in brief: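 Steps: fill pots with alluvial soil; add water to 4 cm depth; co-sow the three weeds; grow at 25° C. to 30° C. under glass; at 1–2 leaves, dose the floodwater with diluted emulsion; rate damage visually after 3 weeks.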

Compound	B (Scirpus juncoides) herbicidal effect grade (Scirpus juncoides)	F: Digitaria ciliaris, herbicidal effect grade (Digitaria ciliaris)	b: directly sowed rice plant, effect on crop grade (rice plant)	Herbicidal effect grade, R: Veronica persica (Veronica persica)	Effect on crop grade, d: soybean (soybean)	Herbicidal effect grade, M: Abutilon theophrasti (Abutilon theophrasti)	Herbicidal effect grade, L: Apera spica-venti (Apera spica-venti)	Herbicidal effect grade, P: Stellaria media (Stellaria media)	Effect on crop grade, b: directly sowed rice plant (rice)	Herbicidal effect grade, I: Avena fatua (Avena fatua)	H: Echinochloa crus-galli var. crus-galli, herbicidal effect grade [1]	O: Chenopodium album, herbicidal effect grade (Chenopodium album)	Herbicidal effect grade, J: Alopecurus myosuroides (Alopecurus myosuroides [2])	Herbicidal effect grade, G: Setaria viridis (Setaria viridis)	J: Alopecurus myosuroides, herbicidal effect grade (Alopecurus myosuroides [3])	Effect on crop grade, e: wheat (wheat)	Herbicidal effect grade, C: Monochoria vaginalis (Monochoria vaginalis)	Herbicidal effect grade, B: Scirpus juncoides (Scirpus juncoides)	F: Digitaria ciliaris, herbicidal effect (criteria 0-5) (Digitaria ciliaris)	b: directly sowed rice plant, effect on crop (criteria 0-5) (rice plant)	further results
COCCON=C(CC1CC(O)=C(c2c(C)cc(Br)cc2C)C1=O)C1CC1 (centres unmarked) [9-019]	0 (Herbicidal ratio of 5% or lower (almost no effect))	4 (Herbicidal ratio of 70% or higher and lower than 90%)	3 (Herbicidal ratio of 40% or higher and lower than 70%)	0 (Herbicidal ratio of 5% or lower (almost no effect))	0 (Herbicidal ratio of 5% or lower (almost no effect))	0 (Herbicidal ratio of 5% or lower (almost no effect))	0 (Herbicidal ratio of 5% or lower (almost no effect))	0 (Herbicidal ratio of 5% or lower (almost no effect))	5 (Herbicidal ratio of 90% or more (almost completely withered))	0 (Herbicidal ratio of 5% or lower (almost no effect))	5 (Herbicidal ratio of 90% or more (almost completely withered))	0 (Herbicidal ratio of 5% or lower (almost no effect))	5 (Herbicidal ratio of 90% or more (almost completely withered))	5 (Herbicidal ratio of 90% or more (almost completely withered))	4 (Herbicidal ratio of 70% or higher and lower than 90%)	0 (Herbicidal ratio of 5% or lower (almost no effect))	0 (Herbicidal ratio of 5% or lower (almost no effect))	–	–	–	–
CON=C(C)CON=C(C)CC1CC(O)=C(c2c(C)cc(C)cc2C)C1=O (centres unmarked) [1-105]	–	–	–	–	–	–	–	–	–	–	–	–	–	–	–	–	3 (Herbicidal ratio of 40% or higher and lower than 70%)	5 (Herbicidal ratio of 90% or more (almost completely withered))	5 (Herbicidal ratio of 90% or more (almost completely withered))	5 (Herbicidal ratio of 90% or more (almost completely withered))	R: Veronica persica, herbicidal effect grade (Veronica persica): 0 (Herbicidal ratio of 5% or lower (almost no effect)); d: soybean, effect grade on crop (soybean): 0 (Herbicidal ratio of 5% or lower (almost no effect)); M: Abutilon theophrasti, herbicidal effect grade (Abutilon theophrasti): 1 (Herbicidal ratio of 5% or higher and lower than 20%); L: Apera spica-venti, herbicidal effect grade (Apera spica-venti): 5 (Herbicidal ratio of 90% or more (almost completely withered)); P: Stellaria media, herbicidal effect grade (Stellaria media): 0 (Herbicidal ratio of 5% or lower (almost no effect)); b: directly sowed rice plant, effect grade on crop (rice): 5 (Herbicidal ratio of 90% or more (almost completely withered)); I: Avena fatua, herbicidal effect grade (Avena fatua): 1 (Herbicidal ratio of 5% or higher and lower than 20%); H: Echinochloa crus-galli var. crus-galli, herbicidal effect (criteria 0-5) [1]: 5 (Herbicidal ratio of 90% or more (almost completely withered)); O: Chenopodium album, herbicidal effect (criteria 0-5) (Chenopodium album): 2 (Herbicidal ratio of 20% or higher and lower than 40%); J: Alopecurus myosuroides, herbicidal effect grade (Alopecurus myosuroides [2]): 5 (Herbicidal ratio of 90% or more (almost completely withered)); G: Setaria viridis, herbicidal effect grade (Setaria viridis): 5 (Herbicidal ratio of 90% or more (almost completely withered)); J: Alopecurus myosuroides, herbicidal effect (criteria 0-5) (Alopecurus myosuroides [3]): 5 (Herbicidal ratio of 90% or more (almost completely withered)); e: wheat, effect grade on crop (wheat): 3 (Herbicidal ratio of 40% or higher and lower than 70%)
CON=C(C)CC1(C)CC(O)=C(c2c(C)cc(C)cc2C)C1=O (mixture of isomers) [11-002]	0 (Herbicidal ratio of 5% or lower (almost no effect))	4 (Herbicidal ratio of 70% or higher and lower than 90%)	5 (Herbicidal ratio of 90% or more (almost completely withered))	0 (Herbicidal ratio of 5% or lower (almost no effect))	0 (Herbicidal ratio of 5% or lower (almost no effect))	0 (Herbicidal ratio of 5% or lower (almost no effect))	4 (Herbicidal ratio of 70% or higher and lower than 90%)	0 (Herbicidal ratio of 5% or lower (almost no effect))	4 (Herbicidal ratio of 70% or higher and lower than 90%)	3 (Herbicidal ratio of 40% or higher and lower than 70%)	5 (Herbicidal ratio of 90% or more (almost completely withered))	0 (Herbicidal ratio of 5% or lower (almost no effect))	3 (Herbicidal ratio of 40% or higher and lower than 70%)	1 (Herbicidal ratio of 5% or higher and lower than 20%)	5 (Herbicidal ratio of 90% or more (almost completely withered))	0 (Herbicidal ratio of 5% or lower (almost no effect))	0 (Herbicidal ratio of 5% or lower (almost no effect))	–	–	–	–
CC(CC1CC(O)=C(c2c(C)cc(C)cc2C)C1=O)=NOC1CCCC1 (centres unmarked) [1-106]	–	–	–	–	–	–	–	–	–	–	–	–	–	–	–	–	0 (Herbicidal ratio of 5% or lower (almost no effect))	3 (Herbicidal ratio of 40% or higher and lower than 70%)	5 (Herbicidal ratio of 90% or more (almost completely withered))	5 (Herbicidal ratio of 90% or more (almost completely withered))	R: Veronica persica, herbicidal effect grade (Veronica persica): 0 (Herbicidal ratio of 5% or lower (almost no effect)); d: soybean, effect grade on crop (soybean): 0 (Herbicidal ratio of 5% or lower (almost no effect)); M: Abutilon theophrasti, herbicidal effect grade (Abutilon theophrasti): 0 (Herbicidal ratio of 5% or lower (almost no effect)); L: Apera spica-venti, herbicidal effect grade (Apera spica-venti): 5 (Herbicidal ratio of 90% or more (almost completely withered)); P: Stellaria media, herbicidal effect grade (Stellaria media): 0 (Herbicidal ratio of 5% or lower (almost no effect)); b: directly sowed rice plant, effect grade on crop (rice): 5 (Herbicidal ratio of 90% or more (almost completely withered)); I: Avena fatua, herbicidal effect grade (Avena fatua): 3 (Herbicidal ratio of 40% or higher and lower than 70%); H: Echinochloa crus-galli var. crus-galli, herbicidal effect (criteria 0-5) [1]: 5 (Herbicidal ratio of 90% or more (almost completely withered)); O: Chenopodium album, herbicidal effect (criteria 0-5) (Chenopodium album): 2 (Herbicidal ratio of 20% or higher and lower than 40%); J: Alopecurus myosuroides, herbicidal effect grade (Alopecurus myosuroides [2]): 5 (Herbicidal ratio of 90% or more (almost completely withered)); G: Setaria viridis, herbicidal effect grade (Setaria viridis): 5 (Herbicidal ratio of 90% or more (almost completely withered)); J: Alopecurus myosuroides, herbicidal effect (criteria 0-5) (Alopecurus myosuroides [3]): 5 (Herbicidal ratio of 90% or more (almost completely withered)); e: wheat, effect grade on crop (wheat): 3 (Herbicidal ratio of 40% or higher and lower than 70%)
